Data as given in publication PMC8213057, “Targeting ALK2: An Open Science Approach to Developing Therapeutics for the Treatment of Diffuse Intrinsic Pontine Glioma” (Journal of Medicinal Chemistry, 2020).

Legend:
[1] = target: MARK2/PAR-1Ba (Homo sapiens, UniProt Q7KZI7); experiment: biochemical; conditions: read-out: % enzyme activity, 1 μM; Run 1, Run 2
[2] = target: PKN1/PRK1 (Homo sapiens, UniProt Q16512); conditions: 1 μM; Run 1, Run 2
[3] = target: RET (Homo sapiens, UniProt P07949); conditions: 1 μM; Run 1, Run 2
[4] = target: T1, EPHB3 (Homo sapiens, UniProt P54753); experiment: biochemical; conditions: read-out: % enzyme activity, 1 μM; Run 1, Run 2
T1 sequence (P54753 34-998): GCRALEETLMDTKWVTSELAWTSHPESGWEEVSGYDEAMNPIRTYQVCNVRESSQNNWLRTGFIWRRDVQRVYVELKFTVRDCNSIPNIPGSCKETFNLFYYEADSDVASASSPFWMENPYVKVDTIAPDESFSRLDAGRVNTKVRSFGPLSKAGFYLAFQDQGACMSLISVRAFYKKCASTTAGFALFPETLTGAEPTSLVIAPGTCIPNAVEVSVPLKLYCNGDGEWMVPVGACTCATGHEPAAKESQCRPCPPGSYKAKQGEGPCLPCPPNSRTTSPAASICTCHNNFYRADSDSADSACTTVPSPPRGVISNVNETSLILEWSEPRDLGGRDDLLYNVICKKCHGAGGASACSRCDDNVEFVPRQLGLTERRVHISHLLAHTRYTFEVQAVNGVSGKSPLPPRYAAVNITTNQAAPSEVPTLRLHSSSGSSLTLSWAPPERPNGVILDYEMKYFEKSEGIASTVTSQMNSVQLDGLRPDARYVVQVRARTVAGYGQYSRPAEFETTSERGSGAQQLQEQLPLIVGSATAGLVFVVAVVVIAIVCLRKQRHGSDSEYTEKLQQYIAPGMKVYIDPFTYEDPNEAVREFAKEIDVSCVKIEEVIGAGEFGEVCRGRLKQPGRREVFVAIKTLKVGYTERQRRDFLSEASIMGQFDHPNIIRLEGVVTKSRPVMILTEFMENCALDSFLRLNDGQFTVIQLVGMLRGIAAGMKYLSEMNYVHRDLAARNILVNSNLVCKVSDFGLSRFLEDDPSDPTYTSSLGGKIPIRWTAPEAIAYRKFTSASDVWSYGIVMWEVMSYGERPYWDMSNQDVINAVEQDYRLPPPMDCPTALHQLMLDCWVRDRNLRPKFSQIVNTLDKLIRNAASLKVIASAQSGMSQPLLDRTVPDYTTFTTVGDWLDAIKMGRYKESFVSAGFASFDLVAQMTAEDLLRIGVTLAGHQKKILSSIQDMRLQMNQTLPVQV

[5] = target: SRPK2 (Homo sapiens, UniProt P78362); experiment: biochemical; conditions: read-out: % enzyme activity, 1 μM; Run 1, Run 2
[6] = target: BRK (Homo sapiens, UniProt Q13882); experiment: biochemical; conditions: read-out: % enzyme activity, 1 μM; Run 1, Run 2
[7] = target: PHKg1 (Homo sapiens, UniProt Q16816); experiment: biochemical; conditions: read-out: % enzyme activity, 1 μM; Run 1, Run 2
[8] = target: TESK1 (Homo sapiens, UniProt Q15569); conditions: 1 μM; Run 1, Run 2
[9] = target: DAPK1 (Homo sapiens, UniProt P53355); conditions: 1 μM; Run 1, Run 2
[10] = target: TLK2 (Homo sapiens, UniProt Q86UE8); conditions: 1 μM; Run 1, Run 2
Sequence of TLK2 (Q86UE8 whole entry): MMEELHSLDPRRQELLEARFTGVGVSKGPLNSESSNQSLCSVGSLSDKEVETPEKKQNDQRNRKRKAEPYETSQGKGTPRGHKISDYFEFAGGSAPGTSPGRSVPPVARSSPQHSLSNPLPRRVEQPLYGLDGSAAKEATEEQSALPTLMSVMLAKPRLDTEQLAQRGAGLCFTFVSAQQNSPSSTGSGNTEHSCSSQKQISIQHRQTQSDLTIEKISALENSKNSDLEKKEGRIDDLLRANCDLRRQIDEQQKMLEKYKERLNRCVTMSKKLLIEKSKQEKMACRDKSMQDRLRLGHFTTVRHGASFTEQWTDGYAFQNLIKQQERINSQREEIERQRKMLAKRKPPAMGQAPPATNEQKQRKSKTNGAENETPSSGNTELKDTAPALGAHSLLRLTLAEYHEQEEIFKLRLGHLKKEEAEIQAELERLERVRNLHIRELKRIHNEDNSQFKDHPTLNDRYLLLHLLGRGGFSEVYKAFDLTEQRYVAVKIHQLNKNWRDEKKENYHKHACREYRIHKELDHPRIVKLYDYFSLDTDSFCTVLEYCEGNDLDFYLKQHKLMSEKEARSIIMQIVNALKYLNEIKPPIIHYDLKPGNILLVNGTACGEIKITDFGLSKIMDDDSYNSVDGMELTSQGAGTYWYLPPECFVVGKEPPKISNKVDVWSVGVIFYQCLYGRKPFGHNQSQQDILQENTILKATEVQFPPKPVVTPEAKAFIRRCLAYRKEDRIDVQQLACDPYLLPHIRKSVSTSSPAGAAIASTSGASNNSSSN

[11] = target: T2, PKCzeta (Homo sapiens, UniProt Q05513); conditions: 1 μM; Run 1, Run 2
T2 sequence (Q05513 1-592): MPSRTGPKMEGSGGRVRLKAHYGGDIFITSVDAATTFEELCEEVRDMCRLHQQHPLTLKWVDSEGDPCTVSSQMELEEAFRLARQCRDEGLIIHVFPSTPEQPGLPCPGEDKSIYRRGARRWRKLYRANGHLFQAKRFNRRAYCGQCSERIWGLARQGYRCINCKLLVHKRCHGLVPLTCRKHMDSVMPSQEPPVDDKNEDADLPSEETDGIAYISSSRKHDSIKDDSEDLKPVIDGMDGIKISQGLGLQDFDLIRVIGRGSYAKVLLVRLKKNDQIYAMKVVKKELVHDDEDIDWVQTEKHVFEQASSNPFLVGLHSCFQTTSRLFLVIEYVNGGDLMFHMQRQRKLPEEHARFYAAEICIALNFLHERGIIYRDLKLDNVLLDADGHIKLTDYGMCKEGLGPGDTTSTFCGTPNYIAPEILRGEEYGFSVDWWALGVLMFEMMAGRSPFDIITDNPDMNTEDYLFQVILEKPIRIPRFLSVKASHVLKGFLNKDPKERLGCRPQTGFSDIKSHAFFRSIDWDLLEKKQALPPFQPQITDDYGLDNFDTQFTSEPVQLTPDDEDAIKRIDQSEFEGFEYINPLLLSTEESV

[12] = target: PAK4 (Homo sapiens, UniProt O96013); conditions: 1 μM; Run 1, Run 2
[13] = target: ACK1 (Homo sapiens, UniProt Q07912); experiment: biochemical; conditions: read-out: % enzyme activity, 1 μM; Run 1, Run 2
Sequence of ACK1 (Q07912 whole entry): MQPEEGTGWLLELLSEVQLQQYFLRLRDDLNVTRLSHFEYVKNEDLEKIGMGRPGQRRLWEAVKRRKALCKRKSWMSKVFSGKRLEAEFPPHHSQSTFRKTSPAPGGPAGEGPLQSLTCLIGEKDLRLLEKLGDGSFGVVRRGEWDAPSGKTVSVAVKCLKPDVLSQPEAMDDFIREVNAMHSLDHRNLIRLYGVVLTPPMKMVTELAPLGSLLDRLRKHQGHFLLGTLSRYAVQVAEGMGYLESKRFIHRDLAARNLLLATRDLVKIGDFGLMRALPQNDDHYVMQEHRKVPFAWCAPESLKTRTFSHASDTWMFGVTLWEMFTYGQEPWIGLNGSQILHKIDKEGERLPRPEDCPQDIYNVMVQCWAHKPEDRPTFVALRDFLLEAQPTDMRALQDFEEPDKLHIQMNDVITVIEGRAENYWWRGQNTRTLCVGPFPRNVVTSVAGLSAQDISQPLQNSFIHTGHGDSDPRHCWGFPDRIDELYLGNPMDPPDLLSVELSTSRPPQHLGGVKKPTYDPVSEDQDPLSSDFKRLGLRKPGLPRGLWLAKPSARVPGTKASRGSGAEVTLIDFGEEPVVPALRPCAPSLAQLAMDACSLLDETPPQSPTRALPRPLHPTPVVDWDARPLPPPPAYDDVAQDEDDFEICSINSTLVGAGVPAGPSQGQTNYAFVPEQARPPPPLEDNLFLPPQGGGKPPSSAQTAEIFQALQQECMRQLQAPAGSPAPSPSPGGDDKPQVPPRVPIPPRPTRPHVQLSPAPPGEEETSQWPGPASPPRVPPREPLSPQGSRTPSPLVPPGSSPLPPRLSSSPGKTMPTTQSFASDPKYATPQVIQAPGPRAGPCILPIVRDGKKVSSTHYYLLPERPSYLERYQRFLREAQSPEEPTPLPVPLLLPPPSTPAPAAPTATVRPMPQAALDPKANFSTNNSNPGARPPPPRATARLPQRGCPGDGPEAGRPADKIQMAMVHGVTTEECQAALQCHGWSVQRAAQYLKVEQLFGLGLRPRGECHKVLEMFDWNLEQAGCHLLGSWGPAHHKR

[14] = target: T3, IRAK4 (Homo sapiens, UniProt Q9NWZ3); conditions: 1 μM; Run 1, Run 2
T3 sequence (Q9NWZ3 1-460): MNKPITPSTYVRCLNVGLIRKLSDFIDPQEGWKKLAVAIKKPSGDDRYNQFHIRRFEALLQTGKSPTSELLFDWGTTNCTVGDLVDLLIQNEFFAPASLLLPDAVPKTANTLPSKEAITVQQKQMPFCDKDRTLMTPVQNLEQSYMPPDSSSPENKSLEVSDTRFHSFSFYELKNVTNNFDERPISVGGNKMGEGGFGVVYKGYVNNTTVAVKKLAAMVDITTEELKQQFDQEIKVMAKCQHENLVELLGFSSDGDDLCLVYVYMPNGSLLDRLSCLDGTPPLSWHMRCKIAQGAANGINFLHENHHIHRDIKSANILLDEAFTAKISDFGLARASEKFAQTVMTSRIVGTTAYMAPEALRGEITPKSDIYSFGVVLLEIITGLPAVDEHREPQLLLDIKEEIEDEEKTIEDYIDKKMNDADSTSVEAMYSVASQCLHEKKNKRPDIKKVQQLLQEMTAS

[15] = target: CAMK2g (Homo sapiens, UniProt Q13555); experiment: biochemical; conditions: read-out: % enzyme activity, 1 μM; Run 1, Run 2
Sequence of CAMK2g (Q13555 whole entry): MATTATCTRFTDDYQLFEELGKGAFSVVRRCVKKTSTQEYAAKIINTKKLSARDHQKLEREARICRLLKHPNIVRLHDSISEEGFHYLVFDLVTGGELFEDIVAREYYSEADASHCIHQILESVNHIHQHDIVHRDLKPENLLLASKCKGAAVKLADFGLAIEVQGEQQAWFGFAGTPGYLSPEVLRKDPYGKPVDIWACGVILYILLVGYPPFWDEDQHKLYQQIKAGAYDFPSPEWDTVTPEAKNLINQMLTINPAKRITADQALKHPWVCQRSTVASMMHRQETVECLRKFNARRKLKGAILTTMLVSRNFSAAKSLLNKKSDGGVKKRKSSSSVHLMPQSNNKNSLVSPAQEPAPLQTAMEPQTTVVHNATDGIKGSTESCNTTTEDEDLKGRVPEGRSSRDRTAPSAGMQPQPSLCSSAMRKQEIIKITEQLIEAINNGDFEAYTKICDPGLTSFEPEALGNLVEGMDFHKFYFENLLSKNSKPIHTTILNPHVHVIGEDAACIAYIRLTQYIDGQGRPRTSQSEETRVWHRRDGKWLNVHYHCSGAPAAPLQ

[16] = target: STK38L/NDR2 (Homo sapiens, UniProt Q9Y2H1); experiment: biochemical; conditions: read-out: % enzyme activity, 1 μM; Run 1, Run 2
[17] = target: ERN1/IRE1 (Homo sapiens, UniProt O75460); conditions: 1 μM; Run 1, Run 2
Sequence of ERN1/IRE1 (O75460 19-977): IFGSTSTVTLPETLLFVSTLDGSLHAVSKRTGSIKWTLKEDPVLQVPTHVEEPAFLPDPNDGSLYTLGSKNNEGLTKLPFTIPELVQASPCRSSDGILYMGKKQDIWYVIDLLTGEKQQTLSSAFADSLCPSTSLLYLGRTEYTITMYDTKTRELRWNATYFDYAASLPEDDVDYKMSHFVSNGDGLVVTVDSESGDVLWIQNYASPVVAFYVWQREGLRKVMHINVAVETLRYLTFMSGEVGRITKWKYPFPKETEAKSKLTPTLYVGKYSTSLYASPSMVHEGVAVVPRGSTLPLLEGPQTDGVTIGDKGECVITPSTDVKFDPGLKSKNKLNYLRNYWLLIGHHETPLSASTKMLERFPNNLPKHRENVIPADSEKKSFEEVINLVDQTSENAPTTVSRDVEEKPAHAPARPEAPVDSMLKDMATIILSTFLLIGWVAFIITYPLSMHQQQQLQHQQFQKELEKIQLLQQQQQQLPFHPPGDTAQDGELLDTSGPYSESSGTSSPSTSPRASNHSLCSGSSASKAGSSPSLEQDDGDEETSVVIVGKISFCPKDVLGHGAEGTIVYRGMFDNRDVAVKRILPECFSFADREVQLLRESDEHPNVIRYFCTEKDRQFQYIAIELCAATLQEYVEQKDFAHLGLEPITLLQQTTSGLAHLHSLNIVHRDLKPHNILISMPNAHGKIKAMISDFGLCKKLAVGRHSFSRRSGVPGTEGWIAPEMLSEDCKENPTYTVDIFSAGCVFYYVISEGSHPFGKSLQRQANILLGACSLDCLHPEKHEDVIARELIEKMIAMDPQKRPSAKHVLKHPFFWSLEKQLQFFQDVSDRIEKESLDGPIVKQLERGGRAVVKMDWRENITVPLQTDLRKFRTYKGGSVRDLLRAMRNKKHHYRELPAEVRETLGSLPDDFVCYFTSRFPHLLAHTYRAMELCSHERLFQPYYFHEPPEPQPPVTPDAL

Sequence of MARK2/PAR-1Ba (Q7KZI7 whole entry): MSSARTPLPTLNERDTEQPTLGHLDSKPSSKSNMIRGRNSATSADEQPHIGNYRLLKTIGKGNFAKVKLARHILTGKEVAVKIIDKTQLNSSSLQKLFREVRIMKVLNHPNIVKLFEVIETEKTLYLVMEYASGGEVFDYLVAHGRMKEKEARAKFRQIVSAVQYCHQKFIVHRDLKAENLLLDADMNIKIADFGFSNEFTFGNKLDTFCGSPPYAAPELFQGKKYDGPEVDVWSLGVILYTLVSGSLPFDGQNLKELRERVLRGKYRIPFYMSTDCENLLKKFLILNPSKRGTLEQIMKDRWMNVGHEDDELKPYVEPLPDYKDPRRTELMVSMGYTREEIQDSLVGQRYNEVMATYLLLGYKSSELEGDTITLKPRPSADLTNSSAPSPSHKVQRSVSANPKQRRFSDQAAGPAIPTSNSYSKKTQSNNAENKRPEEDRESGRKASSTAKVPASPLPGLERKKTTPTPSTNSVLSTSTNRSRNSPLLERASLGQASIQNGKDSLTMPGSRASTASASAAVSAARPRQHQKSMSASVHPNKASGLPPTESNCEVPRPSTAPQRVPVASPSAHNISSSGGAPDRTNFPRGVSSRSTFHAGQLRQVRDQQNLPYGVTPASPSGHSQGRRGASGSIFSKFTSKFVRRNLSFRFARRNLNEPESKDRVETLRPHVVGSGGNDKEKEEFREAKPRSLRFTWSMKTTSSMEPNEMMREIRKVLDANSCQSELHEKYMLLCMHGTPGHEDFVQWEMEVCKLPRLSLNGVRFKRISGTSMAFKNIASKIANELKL
Sequence of PKN1/PRK1 (Q16512 whole entry): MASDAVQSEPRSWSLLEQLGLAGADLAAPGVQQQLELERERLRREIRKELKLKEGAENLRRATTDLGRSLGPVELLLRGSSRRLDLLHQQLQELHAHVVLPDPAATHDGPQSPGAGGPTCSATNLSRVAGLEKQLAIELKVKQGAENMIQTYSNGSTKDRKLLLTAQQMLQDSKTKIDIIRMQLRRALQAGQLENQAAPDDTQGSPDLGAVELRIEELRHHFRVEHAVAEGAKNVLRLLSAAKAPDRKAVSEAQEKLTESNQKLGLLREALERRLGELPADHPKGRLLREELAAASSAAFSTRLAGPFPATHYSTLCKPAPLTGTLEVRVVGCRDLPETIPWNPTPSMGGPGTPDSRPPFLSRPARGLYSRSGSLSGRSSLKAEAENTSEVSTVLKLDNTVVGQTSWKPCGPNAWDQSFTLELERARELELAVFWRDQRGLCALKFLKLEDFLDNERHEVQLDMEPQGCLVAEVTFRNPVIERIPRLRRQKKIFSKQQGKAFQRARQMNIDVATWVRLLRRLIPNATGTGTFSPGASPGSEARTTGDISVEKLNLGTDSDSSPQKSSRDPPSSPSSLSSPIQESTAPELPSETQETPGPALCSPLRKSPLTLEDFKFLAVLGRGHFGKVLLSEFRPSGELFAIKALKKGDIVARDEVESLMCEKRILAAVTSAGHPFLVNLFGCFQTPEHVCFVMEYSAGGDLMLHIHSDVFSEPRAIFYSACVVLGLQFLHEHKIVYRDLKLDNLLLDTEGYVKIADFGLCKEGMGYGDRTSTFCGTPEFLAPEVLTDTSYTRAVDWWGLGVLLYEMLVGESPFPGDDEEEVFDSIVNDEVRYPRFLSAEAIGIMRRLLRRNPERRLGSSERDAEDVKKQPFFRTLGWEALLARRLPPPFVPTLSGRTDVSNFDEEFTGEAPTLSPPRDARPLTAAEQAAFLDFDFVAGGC

Compound	remaining activity at 1 µM [1]	% enzyme activity [2]	% enzyme activity [3]	remaining activity at 1 µM [4]	remaining activity at 1 µM [5]	remaining activity at 1 µM [6]	remaining activity at 1 µM [7]	% enzyme activity [8]	% enzyme activity [9]	% enzyme activity [10]	% enzyme activity [11]	% enzyme activity [12]	remaining activity at 1 µM [13]	% enzyme activity [14]	remaining activity at 1 µM [15]	remaining activity at 1 µM [16]	% enzyme activity [17]
COc1cc(-c2cncc(-c3ccc(N4C[C@@H](C)N(C)[C@@H](C)C4)cc3)c2C)cc(F)c1C(N)=O [Compound 26c, 2-Fluoro-6-methoxy-4-(4-methyl-5-(4-((3R,5S)-3,4,5-trimethylpiperazin-1-yl)phenyl)pyridin-3-yl)benzamide]	104%	96.39%	93.64%	98.9%	121%	73.9%	97%	105.23%	96.25%	89.84%	91.43%	98.82%	79.5%	88.61%	110%	104%	90.44%
COc1cc(-c2cncc(-c3ccc(N4CCN(C)CC4)cc3)c2C)cc(F)c1C(N)=O [Compound 26a, 2-Fluoro-6-methoxy-4-(4-methyl-5-(4-(4-methylpiperazin-1-yl)phenyl)pyridin-3-yl)benzamide]	92.8%	96.76%	94.34%	95.5%	97.8%	58.3%	85.6%	108.88%	94.56%	95.61%	90.40%	98.21%	65.5%	82.71%	103%	99.4%	92.47%
